From ChEMBL document CHEMBL3046061, “Quinolinedione nucleus as a novel scaffold for A1 and A2A adenosine receptor antagonists” (Med Chem Res, 2008) come the findings set out here.

Assay [1] relates to cAMP phosphodiesterase 3 (Cavia porcellus). The assay is described as follows: Inhibition of Cavia porcellus (guinea pig) PDE3 isolated from heart using [3H]cAMP as substrate at 1 uM by two-step method.
Assay [2] concerns the target T1, Adenosine receptor A1 (Bos taurus) (UniProt P28190).
T1 sequence (whole entry): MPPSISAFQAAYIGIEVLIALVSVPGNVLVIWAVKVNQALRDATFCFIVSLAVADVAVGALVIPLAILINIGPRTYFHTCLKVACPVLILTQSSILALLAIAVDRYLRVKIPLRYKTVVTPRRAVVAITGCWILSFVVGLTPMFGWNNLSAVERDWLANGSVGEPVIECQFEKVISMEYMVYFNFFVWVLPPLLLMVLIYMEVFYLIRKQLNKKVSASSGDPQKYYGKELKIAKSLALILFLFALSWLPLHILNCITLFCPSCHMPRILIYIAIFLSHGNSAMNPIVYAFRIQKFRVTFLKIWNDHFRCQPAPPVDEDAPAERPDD
The assay is described as follows: Displacement of [3H]DPCPX from adenosine A1 receptor in Bos taurus (bovine) cortical membrane at 10 uM.

For assay [3], the target named is T2, Adenosine receptor A1 (Homo sapiens) (UniProt P30542).
T2 sequence (whole entry): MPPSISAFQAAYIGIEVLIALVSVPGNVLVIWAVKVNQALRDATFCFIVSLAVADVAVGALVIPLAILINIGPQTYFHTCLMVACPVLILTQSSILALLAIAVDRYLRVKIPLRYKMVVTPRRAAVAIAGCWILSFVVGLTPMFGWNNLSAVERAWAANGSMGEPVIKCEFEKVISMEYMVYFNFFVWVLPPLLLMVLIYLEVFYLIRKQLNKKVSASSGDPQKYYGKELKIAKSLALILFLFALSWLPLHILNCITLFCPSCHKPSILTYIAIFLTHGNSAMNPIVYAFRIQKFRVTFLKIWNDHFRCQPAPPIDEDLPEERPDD
The assay is described as follows: Displacement of [3H]DPCPX from Homo sapiens (human) adenosine A1 receptor expressed in CHO cells at 10 uM. In kind it is cell-based. (In general: In a radioligand displacement assay an active substance lowers the binding of a labelled ligand.)

For assay [4], the system named is cAMP phosphodiesterase 3 (Cavia porcellus). The experiment in a line: Inhibition of Cavia porcellus (guinea pig) PDE3 isolated from heart using [3H]cAMP as substrate at 50 uM by two-step method.
Assay [5] shares this test system. The assay is described as follows: Inhibition of Cavia porcellus (guinea pig) PDE3 isolated from heart using [3H]cAMP as substrate at 10 uM by two-step method.
In assay [6] the target is T3, Adenosine receptor A3 (Homo sapiens) (UniProt P0DMS8).
T3 sequence (whole entry): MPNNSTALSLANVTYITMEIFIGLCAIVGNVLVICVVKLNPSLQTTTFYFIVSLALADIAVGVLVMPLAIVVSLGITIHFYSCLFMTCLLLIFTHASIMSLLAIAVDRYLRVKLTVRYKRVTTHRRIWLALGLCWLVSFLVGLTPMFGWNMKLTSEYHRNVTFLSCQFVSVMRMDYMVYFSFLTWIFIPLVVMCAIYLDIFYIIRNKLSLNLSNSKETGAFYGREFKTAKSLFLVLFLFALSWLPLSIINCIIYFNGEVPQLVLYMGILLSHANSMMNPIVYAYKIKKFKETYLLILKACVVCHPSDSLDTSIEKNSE
The assay is described as follows: Displacement of [125I]AB-MECA from Homo sapiens (human) adenosine A3 receptor expressed in CHO cells at 10 uM. The class given is cell-based.

Assay [7] concerns the target Uncharacterized protein (Bos taurus) (UniProt E1BKU0). The experiment in a line: Displacement of [3H]CGS21680 from adenosine A2A receptor in Bos taurus (bovine) cortical membrane at 10 uM.
Assay [8] deals with cAMP phosphodiesterase 3 (Cavia porcellus). The experiment in a line: Inhibition of Cavia porcellus (guinea pig) PDE3 isolated from heart using [3H]cAMP as substrate at 100 uM by two-step method.
Assay [9] addresses T4, Adenosine receptor A1 (Bos taurus, UniProt P28190).
T4 sequence (P28190 whole entry): T1 sequence (whole entry)
The assay is described as follows: Displacement of [3H]DPCPX from adenosine A1 receptor in Bos taurus (bovine) cortical membrane.

The target in assay [10] is T5, Adenosine receptor A2a (Homo sapiens, UniProt P29274). The assay is described as follows: Displacement of [3H]CGS21680 from Homo sapiens (human) adenosine A2A receptor expressed in CHO cells. In kind it is cell-based.
T5 sequence (P29274 whole entry): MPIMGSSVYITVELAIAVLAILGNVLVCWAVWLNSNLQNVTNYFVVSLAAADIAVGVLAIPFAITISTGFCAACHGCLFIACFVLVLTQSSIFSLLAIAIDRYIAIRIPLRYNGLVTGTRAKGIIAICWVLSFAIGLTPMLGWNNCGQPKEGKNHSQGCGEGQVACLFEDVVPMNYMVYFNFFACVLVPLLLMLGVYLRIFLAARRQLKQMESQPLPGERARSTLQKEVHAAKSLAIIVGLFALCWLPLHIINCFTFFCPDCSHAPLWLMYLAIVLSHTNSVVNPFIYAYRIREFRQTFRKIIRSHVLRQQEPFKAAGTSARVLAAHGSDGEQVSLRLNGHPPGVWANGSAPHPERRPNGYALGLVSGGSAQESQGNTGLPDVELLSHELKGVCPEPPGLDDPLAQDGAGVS
For assay [11], the target named is Uncharacterized protein (Bos taurus, UniProt E1BKU0). The assay is described as follows: Displacement of [3H]CGS21680 from adenosine A2A receptor in Bos taurus (bovine) cortical membrane.
Uncharacterized protein, sequence (E1BKU0 whole entry): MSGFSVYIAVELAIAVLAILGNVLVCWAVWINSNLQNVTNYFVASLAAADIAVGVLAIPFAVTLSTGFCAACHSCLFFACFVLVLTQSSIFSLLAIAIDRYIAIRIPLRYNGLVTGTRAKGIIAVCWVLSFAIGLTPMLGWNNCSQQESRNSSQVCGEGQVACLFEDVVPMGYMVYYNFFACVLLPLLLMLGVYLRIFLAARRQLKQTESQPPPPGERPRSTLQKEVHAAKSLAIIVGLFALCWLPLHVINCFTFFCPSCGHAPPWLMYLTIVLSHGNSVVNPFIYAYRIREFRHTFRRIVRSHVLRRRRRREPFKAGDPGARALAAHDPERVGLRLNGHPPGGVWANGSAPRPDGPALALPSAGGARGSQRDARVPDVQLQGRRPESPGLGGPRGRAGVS
Assay [12] concerns the target T6, Adenosine receptor A1 (Homo sapiens, UniProt P30542).
T6 sequence (P30542 whole entry): T2 sequence (whole entry)
The experiment in a line: Displacement of [3H]DPCPX from Homo sapiens (human) adenosine A1 receptor expressed in CHO cells. The class given is cell-based.

Assay [13] addresses T5, Adenosine receptor A2a. The assay is described as follows: Displacement of [3H]CGS21680 from Homo sapiens (human) adenosine A2A receptor expressed in CHO cells at 10 uM. In kind it is cell-based.

Each structure is given as a SMILES string.

Uncharacterized protein (Bos taurus), sequence (E1BKU0 as listed by the source): as the sequence (E1BKU0 whole entry) above

By inhibition is commonly meant the relative decrease from the control value, in per cent. For `O=C1CCCc2[nH]c(=O)c(S(=O)(=O)c3ccccc3)cc21`, the inhibition in [1] is 0%; in [2] it was 10%; in assay [3] it was 36%; in assay [4] it was 4.7%; in assay [5], 0%; in assay [6], 0%. Also, the inhibition in assay [7] came out at 2%; in assay [8] it was 5.7%.
One may read the Ki as a measure of affinity in units of concentration, obtained from inhibition or displacement. For the molecule `CC(C)(C)C(=O)c1cc2c([nH]c1=O)CC(c1ccccc1)CC2=O` (centres undefined), the Ki was determined as 5.1 µM in assay [9], 16 µM in assay [10] and 15 µM in assay [11]. Moreover, the inhibition in [1] amounted to 0%; in [3], 11%; in [4] it was 3.3%; in [5] it was 0.8%; in [6], 21%; in assay [8], 4.2%.
As to `CC(C)(C)C(=O)c1cc2c([nH]c1=O)CCCC2=O`, the inhibition in assay [1] is 0%; in assay [2], 13%; in assay [3], 0%; in [4], 6.6%; in assay [5] it was 2.5%; in [6], 0%. Also, the inhibition amounted to 0% in assay [7] and 6.6% in assay [8].
For the molecule `CC(=O)c1cc(S(=O)(=O)c2ccccc2)c(=O)[nH]c1C`, the inhibition in assay [1] is 0%; in [2] it was 0%; in assay [4], 3.98%; in assay [5], 1.03%; in assay [6] it was 0%; in [7], 0%. This molecule displayed an inhibition in [8] of 8.72%.
For `O=C1CC(c2ccccc2)Cc2[nH]c(=O)c(S(=O)(=O)c3ccccc3)cc21` (centres undefined), the Ki in assay [9] was 5.8 µM; in assay [10], 7 µM; in assay [12] it was 7.8 µM; in [11] it was 7.9 µM. The inhibition in assay [1] was 0%; in assay [4], 5.7%; in [5], 0%; in assay [6], 18%; in assay [8], 10.4%.
Turning to `CC(=O)c1cc(C(=O)c2ccccc2)c(=O)[nH]c1C`, the inhibition in [1] worked out at 0%; in [2] it was 0%; in assay [4], 4.35%; in [5] it was 2%; in assay [6], 0%; in assay [7], 0%. The same molecule gave an inhibition in assay [8] of 8.9%.
Turning to `CC(=O)c1cc(C(=O)C(C)(C)C)c(=O)[nH]c1C`, the inhibition in assay [1] stood at 0%; in assay [2], 0%; in assay [4] it was 2.15%; in [5], 1.15%; in assay [6] it was 13%; in [7], 11%. The molecule also showed an inhibition in assay [8] of 8.23%.
Take `O=C(c1ccccc1)c1cc(C(=O)c2ccccc2)c(=O)[nH]c1-c1ccccc1`: the inhibition in [1] was determined as 0%; in assay [13], 13%; in [2], 13%; in assay [3], 2%; in [4], 5.4%; in assay [5], 1.76%. The inhibition in [6] was found to be 2%; in assay [7], 8%; in assay [8], 9.6%.
In the case of `O=C1CC(c2ccccc2)Cc2[nH]c(=O)c(C(=O)c3ccccc3)cc21` (centres undefined), affinity in assay [9] was put at a Ki of 6.5 µM. The inhibition came to 0% in assay [1]; 16% in [13]; 5% in [3]; 1.7% in [4]; 5.2% in [5]; 0% in [6]. Further, the inhibition in [7] was found to be 0%; in assay [8], 7.8%.
For the molecule `O=C(c1ccccc1)c1cc(S(=O)(=O)c2ccccc2)c(=O)[nH]c1-c1ccccc1`, the inhibition in assay [1] amounted to 0%; in assay [13], 11%; in assay [2], 8%; in [3], 1%; in [4] it was 3.5%; in assay [5], 0%. Besides, the values for the inhibition in assay [6], in assay [7] and in assay [8] were 0%, 8% and 7.53%, respectively.
With `O=C1CCCc2[nH]c(=O)c(C(=O)c3ccccc3)cc21`, the inhibition in [1] was determined as 0%; in [2], 6%; in assay [4], 4.3%; in assay [5] it was 0%; in assay [6], 0%; in [7], 4%. For the same molecule, the inhibition in assay [8] stood at 6%.
